The record followed here is paper PMC9146984, “A Novel Proline-Rich Cathelicidin from the Alpaca Vicugna pacos with Potency to Combat Antibiotic-Resistant Bacteria: Mechanism of Action and the Functional Role of the C-Terminal Region” (Membranes, 2022).

One data set concerns E. coli BW25113 ΔmdtM. It is filed as cell-based, Escherichia coli. To be noted: Mueller–Hinton broth, 24 h, 37 °C, median. Here is the method: (§1) The reduction of resazurin to resorufin was measured.
In a further data set the test system is E. coli BW25113 ΔompF. The format is cell-based, Escherichia coli. The note with it: Mueller–Hinton broth, 24 h, 37 °C, median. On the procedure:
as §1

The subject of another data set is E. coli BW25113 ΔsbmA. The format is cell-based, Escherichia coli. The note with it: Mueller–Hinton broth, 24 h, 37 °C, median. On the procedure: as §1
In the next data set the test system is E. coli BW25113. It is filed as cell-based, Escherichia coli. The note with it: BW25113, 24 h. On the procedure: as §1
A further data set deals with E. coli MDR CI 1057. To be noted: Mueller-Hinton broth supplemented with 0.9% NaCl. On the procedure:
(§2) Bacterial test cultures were grown in the Mueller-Hinton broth (MH; Sigma, St. Louis, MO, USA) at 37 °C to mid-log phase and then diluted with the 2× MH medium supplemented with 1.8% NaCl or without salt so that to reach a final cell concentration of 10^6 CFU/mL. 50 µL of the obtained bacterial suspension were added to aliquots of 50 µL of the peptide solutions serially diluted with sterilized 0.1% bovine serum albumin (BSA) in 96-well flat-bottom polystyrene microplates (Eppendorf #0030730011, Hamburg, Germany). […] To verify MIC values, the respiratory activity of the bacteria was determined. Briefly, 20 µL of 0.1 mg/mL resazurin (a redox indicator; Sigma, St. Louis, MO, USA) was added to the wells after 24 h of incubation, and the plate was incubated for an additional two hours. The reduction of resazurin to resorufin was measured. […] The results were expressed as the median values determined based on at least three independent experiments performed in triplicate.
(§3) Resistance induction experiments were performed using the previously described method. Briefly, on day one, the overnight culture of wild-type bacteria was diluted with the 2× MH broth supplemented with 1.8% NaCl to reach a final cell concentration of 10^6 CFU/mL. 50 µL of the obtained bacterial suspension were added to aliquots of 50 µL of the peptide solutions serially diluted with the sterilized 0.1% BSA in 96-well flat-bottom polystyrene microplates. After incubation for 20 ± 2 h at 37 °C and 950 rpm, MICs were determined as described above. For each subsequent daily transfer, 2–4 μL of the inoculum taken from the first well containing a sub-inhibitory drug concentration were diluted with 2 mL of the fresh 2× MH broth supplemented with 1.8% NaCl. […] 14 repeated passages in the presence of antimicrobial agents were made for each bacterial strain during the experiment. Bacteria that grew at the highest concentration of AMPs on the final day were passaged a further 3 times on drug-free agar plates before determining the final MIC value.

Data set [1] deals with VicBac[1–22]-resistant E. coli MDR 1057 strain. The note with it: Mueller-Hinton broth supplemented with 0.9% NaCl; strain selected 14 days with VicBac[1-22]; cross-resistance. Here is the method: as §2, §3
The subject of the next data set is E. coli MDR 1057. The note with it: selection by VicBac[1–22], stable after three passages without peptide. Here is the method: Resistance induction experiments were performed using the previously described method. Briefly, on day one, the overnight culture of wild-type bacteria was diluted with the 2× MH broth supplemented with 1.8% NaCl to reach a final cell concentration of 10^6 CFU/mL. 50 µL of the obtained bacterial suspension were added to aliquots of 50 µL of the peptide solutions serially diluted with the sterilized 0.1% BSA in 96-well flat-bottom polystyrene microplates. After incubation for 20 ± 2 h at 37 °C and 950 rpm, MICs were determined as described above. For each subsequent daily transfer, 2–4 μL of the inoculum taken from the first well containing a sub-inhibitory drug concentration were diluted with 2 mL of the fresh 2× MH broth supplemented with 1.8% NaCl. […] Bacteria that grew at the highest concentration of AMPs on the final day were passaged a further 3 times on drug-free agar plates before determining the final MIC value.

Data set [2] relates to human embryonic kidney cells (HEK293T). The experiment in a line: Cytotoxicity (MTT assay). The format is cell-based. Here is the method: Hemolytic activity of the peptides was tested against the fresh suspension of human red blood cells (hRBC) using the hemoglobin release assay as described previously. Two experiments were performed with the hRBC from blood samples of independent donors. The quantitative data were represented as average means with standard deviations. The colorimetric 3-(4,5-dimethylthiazol-2-yl)-2,5-diphenyltetrazolium bromide (MTT) dye reduction assay was used to determine the cytotoxicity of the peptides against transformed human embryonic kidney cells (HEK293T). 10^4 cells per well in Dulbecco’s modified Eagle’s medium (DMEM/F12) supplemented with 10% fetal bovine serum (FBS; Invitrogen, Waltham, MA, USA) were placed into 96-well plates and then cultured in the CO2-incubator (5% CO2, 37 °C). After the media were removed, the peptides were dissolved in 100 µL of the same medium and added to cell cultures at different final concentrations. 20 h later, 20 μL of MTT (5 mg/mL; Sigma, St. Louis, MO, USA) was added to each well, and the plates were incubated for 4 h at 37 °C. Then, the media were discarded and a 100 µL dimethyl sulfoxide-isopropanol mixture at a ratio of 1:1 (v/v) was added to each well to dissolve the crystallized formazan. The absorbance at 570 nm was measured by a microplate reader AF2200 (Eppendorf, Hamburg, Germany). The optical density in the wells containing cells cultured without the peptides was assumed to represent 100% cell viability. Two independent experiments were performed for each peptide.
Background: Tetrazolium dyes change colour on reduction, which living cells bring about.

The test system of data set [3] is BW25113ΔsbmA expressing the control protein sfGFP. It is filed as cell-based, Escherichia coli. The note with it: same promoter J23119. Here is the method:
as §1
(§4) A plasmid vector for the expression of sfGFP under the strong constitutive artificial promoter J23119 [33] was kindly provided by M.N. Baranova (Figure S2A). This plasmid was used for the preparation of the complementation plasmids overexpressing two SbmA variants in the SbmA-deficient E. coli strain. The plasmids were obtained by ligase-independent cloning procedure. Briefly, DNA parts were produced by PCR-amplification of the vector and target sbmA gene from wild-type E. coli MDR 1057 or VicBac[1–22]-resistant strain (Figure S2B). The DNA fragments purified by gel electrophoresis and having 22–23 bp overhangs were mixed with molar ratios of 2:1 (insert: linearized vector) and were subsequently transformed into chemically competent E. coli DH10B cells. Target plasmids were isolated from individual clones and then analyzed by DNA sequencing.

For data set [4], the system named is BW25113ΔsbmA with plasmid-borne mutant SbmA bearing the tetrapeptide deletion. The format is cell-based, Escherichia coli. To be noted: promoter J23119, pUC vector. Here is the method: as §1, §4
Data set [5] deals with BW25113ΔsbmA with plasmid-borne wild-type SbmA. It is filed as cell-based, Escherichia coli. The note with it: promoter J23119, pUC vector. Here is the method:
as §1, §4

In brackets after ≈: the same amount, converted by molar mass. Like-named read-outs stand apart in the source and are kept apart here. Where a SMILES comes first, the peptide text is derived from it.

On to `CC[C@H](C)[C@H](NC(=O)[C@H](CCCNC(=N)N)NC(=O)[C@@H]1CCCN1C(=O)[C@@H]1CCCN1C(=O)[C@@H](NC(=O)[C@H](CCCNC(=N)N)NC(=O)[C@@H]1CCCN1C(=O)[C@H](CCCNC(=N)N)NC(=O)[C@@H]1CCCN1C(=O)[C@@H](NC(=O)[C@H](CCCNC(=N)N)NC(=O)[C@@H]1CCCN1C(=O)[C@H](CCCNC(=N)N)NC(=O)[C@@H]1CCCN1C(=O)[C@H](CC(C)C)NC(=O)[C@H](CCCNC(=N)N)NC(=O)[C@@H]1CCCN1C(=O)[C@H](CCCNC(=N)N)NC(=O)[C@H](CCCNC(=N)N)NC(=O)[C@@H](NC(=O)[C@H](CCCNC(=N)N)NC(=O)[C@@H](N)CCCNC(=N)N)[C@@H](C)CC)C(C)C)[C@@H](C)CC)C(=O)O` [VicBac[1-22]] (H-RRIRRPRLPRPRVPRPRIPPRI-OH), for which the “Minimum inhibitory concentration, E. coli strain ΔmdtM” value was 2 µM (≈ 5.62 µg/mL) in the data set with E. coli BW25113 ΔmdtM (0.9% NaCl: +) and 4 µM (≈ 11.2 µg/mL) in the data set with E. coli BW25113 ΔmdtM (0.9% NaCl: −). Further, the “Minimum inhibitory concentration, E. coli strain ΔompF” value turned out to be 8 µM (≈ 22.5 µg/mL) in the data set on E. coli BW25113 ΔompF (0.9% NaCl: +) and 2 µM (≈ 5.62 µg/mL) in the data set with E. coli BW25113 ΔompF (0.9% NaCl: −). In addition, the figures for the “Minimum inhibitory concentration, E. coli strain ΔsbmA” value in the data set with E. coli BW25113 ΔsbmA (0.9% NaCl: +) and in the data set with E. coli BW25113 ΔsbmA (0.9% NaCl: −) were 16 µM (≈ 45 µg/mL) and 4 µM (≈ 11.2 µg/mL), respectively. For the same molecule, the “Minimum inhibitory concentration, E. coli strain BW25113” value with E. coli BW25113 was determined as 2 µM (≈ 5.62 µg/mL). Further, the “Minimum inhibitory concentration E.coli MDR 1057 14 days w/o AMP” value in the data set on E. coli MDR CI 1057 (after 14 passages without antimicrobial agents) is 1 µM (≈ 2.81 µg/mL). The “Minimum inhibitory concentration E.coli MDR 1057 0 days” value in the data set with E. coli MDR CI 1057 (before passages) amounted to 1 µM (≈ 2.81 µg/mL). Further, the “Minimum inhibitory concentration E.coli MDR 1057 14 days with VicBac [1-22]” value in data set [1] was more than 128 µM. Besides, in the data set on E. coli MDR 1057, the “MIC value after 10 passages subjected to selection” value is more than 128 µM. The “moderate cytotoxic activity against human HEK293T cells” value in [2] was “not”. The “MIC, control strain BW25113ΔsbmA expressing sfGFP” value in data set [3] came to 8 µM (≈ 22.5 µg/mL). Also, in [4], the “MIC, BW25113ΔsbmA with plasmid-borne mutant SbmA (tetrapeptide deletion)” value is on record as 8 µM. Moreover, the “MIC, BW25113ΔsbmA with plasmid-borne wild-type SbmA” value in data set [5] is 1 µM.
